The values that follow come from ChEMBL document CHEMBL5236625, “New class of fused [3,2-b][1,2,4]triazolothiazoles for targeting glioma in vitro” (Bioorg Med Chem Lett, 2023).

As usually defined, the IC50 is the point on the concentration scale where inhibition reaches its midpoint.

Molecules are shown by their SMILES. Calls of active or inactive are those of the source. The calls are words filed in the database; no cut-off is given here.

For data set [1], the system named is LN-18. The experiment in a line: Inhibition of ERK phosphorylation in human LN-18 cells by Western blot analysis. The class given is cell-based. The note with it: dose 10-100 µM.
Data set [2] has as its system C6. The experiment in a line: Induction of apoptosis in rat C6 cells assessed as increase in Bax expression at 10 to 100 uM by Western blot analysis. The note with it: dose 10-100 µM. Format: functional, cell-based. In general terms: In western blotting, separated proteins are transferred to a membrane and probed.
Data set [3] has as its system LN-18. The experiment in a line: Induction of apoptosis in human LN-18 cells assessed as increase in Bax expression at 10 to 100 uM by Western blot analysis. Format: functional, cell-based. Conditions: dose 10-100 µM.
For data set [4], the system named is C6. The experiment in a line: Inhibition of colony formation in rat C6 cells at 10 to 100 uM measured after 48 hrs by clonogenic assay. The class given is functional, cell-based. Conditions: dose 10-100 µM.
In data set [5] the test system is C6. The experiment in a line: Induction of apoptosis in rat C6 cells assessed as reduction in XBP1 expression at 10 to 100 uM by Western blot analysis. Format: functional, cell-based. Conditions: dose 10-100 µM.
Data set [6] deals with LN-18. Put plainly: Antimigratory activity against human LN-18 cells assessed as rate of cell migration measured at 100 uM by wound healing assay (reference value: 24.46 um/hr). The class given is functional.
The test system of data set [7] is LN-18. Put plainly: Induction of apoptosis in human LN-18 cells assessed as reduction in XBP1 expression at 10 to 100 uM by Western blot analysis. Format: functional, cell-based. Conditions: dose 10-100 µM.
Data set [8] deals with C6. Put plainly: Inhibition of AKT phosphorylation at Thr308 in rat C6 cells by Western blot analysis. The class given is cell-based. The note with it: dose 10-100 µM.
In data set [9] the test system is C6. The experiment in a line: Induction of apoptosis in rat C6 cells assessed as reduction in IRE1 expression at 10 to 100 uM by Western blot analysis. Conditions: dose 10-100 µM. The class given is functional, cell-based.
Data set [10] has as its system LN-18. The experiment in a line: Cytotoxicity against human LN-18 cells assessed as cell viability measured upto 108 hrs by MTT assay. The class given is functional, cell-based. Conditions: LN-18, 108 h.
Data set [11] has as its system C6. Put plainly: Antimigratory activity against rat C6 cells assessed as rate of cell migration measured at 100 uM by wound healing assay (reference value: 21.95 um/hr). The class given is functional.
Data set [12] relates to C6. The experiment in a line: Induction of apoptosis in rat C6 cells assessed as cell population in […] at 50 to 100 uM (reference value: 2 to 7%). Format: functional. The note with it: dose 50-100 µM.
Data set [13] has as its target T1, Serine/threonine-protein kinase AKT (Homo sapiens) (UniProt P31751+Q9Y243+P31749). Put plainly: Inhibition of AKT phosphorylation at Ser473 in human LN-18 cells by Western blot analysis. Format: cell-based. Conditions: dose 10-100 µM.
The subject of data set [14] is LN-18. The experiment in a line: Inhibition of colony formation in human LN-18 cells at 10 to 100 uM measured after 48 hrs by clonogenic assay. Format: functional, cell-based. Conditions: dose 10-100 µM.
Data set [15] has as its system C6. Put plainly: Cytotoxicity against rat C6 cells assessed as cell viability measured upto 108 hrs by MTT assay. Format: functional, cell-based. The note with it: C6, 108 h. In general terms: Tetrazolium assays rely on reduction of a dye to a coloured formazan, in cell work by metabolically active cells.
Data set [16] deals with T1, Serine/threonine-protein kinase AKT (Homo sapiens). Put plainly: Inhibition of AKT phosphorylation at Thr308 in human LN-18 cells by Western blot analysis. Format: cell-based. Conditions: dose 10-100 µM.
Data set [17] relates to C6. The experiment in a line: Induction of cell cycle arrest in rat C6 cells assessed as cell population in sub-G1 phase at 10 uM (reference value: 60%). Format: functional.
Data set [18] deals with LN-18. Put plainly: Induction of apoptosis in human LN-18 cells assessed as cell population in […] at 50 to 100 uM (reference value: 2 to 7%). The class given is functional. Conditions: dose 50-100 µM.
Data set [19] is filed under the species Rattus norvegicus. Put plainly: Inhibition of ERK phosphorylation in rat C6 cells by Western blot analysis. Format: cell-based. Conditions: dose 50-100 µM.
For data set [20], the system named is C6. The experiment in a line: Inhibition of AKT phosphorylation at Ser473 in rat C6 cells by Western blot analysis. The note with it: dose 10-100 µM. Format: cell-based.
The subject of data set [21] is LN-18. The experiment in a line: Induction of apoptosis in human LN-18 cells assessed as reduction in IRE1 expression at 10 to 100 uM by Western blot analysis. Format: functional, cell-based. Conditions: dose 10-100 µM.
For data set [22], the system named is LN-18. Put plainly: Induction of cell cycle arrest in human LN-18 cells assessed as cell population in sub-G1 phase at 10 uM (reference value: 44%). Format: functional.
Data set [23] has as its system C6. The experiment in a line: Induction of cell cycle arrest in rat C6 cells assessed as cell population in G2-M phase at 10 uM (reference value: 19.3%). Format: functional.
Data set [24] deals with LN-18. Put plainly: Induction of cell cycle arrest in human LN-18 cells assessed as cell population in G2-M phase at 10 uM (reference value: 39.4%). The class given is functional.
Data set [25] is described as follows: Solubility in DMSO. The class given is physicochemical.

T1 sequence (P31749 whole entry, looked up): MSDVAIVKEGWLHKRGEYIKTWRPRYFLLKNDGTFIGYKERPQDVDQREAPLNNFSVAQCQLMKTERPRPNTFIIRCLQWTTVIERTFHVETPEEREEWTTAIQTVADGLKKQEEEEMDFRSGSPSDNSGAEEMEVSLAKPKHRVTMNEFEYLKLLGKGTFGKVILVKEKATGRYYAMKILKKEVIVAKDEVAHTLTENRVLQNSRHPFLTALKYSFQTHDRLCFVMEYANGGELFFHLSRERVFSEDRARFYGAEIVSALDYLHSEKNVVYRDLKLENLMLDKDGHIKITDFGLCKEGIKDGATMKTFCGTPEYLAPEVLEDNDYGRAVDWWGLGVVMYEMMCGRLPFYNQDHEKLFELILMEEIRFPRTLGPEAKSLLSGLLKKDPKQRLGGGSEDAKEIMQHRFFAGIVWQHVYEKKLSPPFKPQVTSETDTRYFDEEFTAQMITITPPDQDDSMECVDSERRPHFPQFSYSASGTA
T1 sequence (P31751 whole entry, looked up): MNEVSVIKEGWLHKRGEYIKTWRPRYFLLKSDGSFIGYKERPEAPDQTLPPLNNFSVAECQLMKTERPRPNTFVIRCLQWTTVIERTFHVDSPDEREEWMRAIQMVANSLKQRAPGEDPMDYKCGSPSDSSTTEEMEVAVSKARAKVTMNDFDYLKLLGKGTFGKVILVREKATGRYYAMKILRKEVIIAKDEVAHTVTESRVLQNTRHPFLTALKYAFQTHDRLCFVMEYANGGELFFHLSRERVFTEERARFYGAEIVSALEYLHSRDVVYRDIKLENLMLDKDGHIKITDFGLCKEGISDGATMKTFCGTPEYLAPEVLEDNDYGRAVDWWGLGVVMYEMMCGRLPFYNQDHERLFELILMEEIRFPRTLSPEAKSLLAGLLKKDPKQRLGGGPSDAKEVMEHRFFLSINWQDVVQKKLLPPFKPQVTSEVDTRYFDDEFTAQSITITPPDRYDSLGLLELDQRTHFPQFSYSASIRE
T1 sequence (Q9Y243 whole entry, looked up): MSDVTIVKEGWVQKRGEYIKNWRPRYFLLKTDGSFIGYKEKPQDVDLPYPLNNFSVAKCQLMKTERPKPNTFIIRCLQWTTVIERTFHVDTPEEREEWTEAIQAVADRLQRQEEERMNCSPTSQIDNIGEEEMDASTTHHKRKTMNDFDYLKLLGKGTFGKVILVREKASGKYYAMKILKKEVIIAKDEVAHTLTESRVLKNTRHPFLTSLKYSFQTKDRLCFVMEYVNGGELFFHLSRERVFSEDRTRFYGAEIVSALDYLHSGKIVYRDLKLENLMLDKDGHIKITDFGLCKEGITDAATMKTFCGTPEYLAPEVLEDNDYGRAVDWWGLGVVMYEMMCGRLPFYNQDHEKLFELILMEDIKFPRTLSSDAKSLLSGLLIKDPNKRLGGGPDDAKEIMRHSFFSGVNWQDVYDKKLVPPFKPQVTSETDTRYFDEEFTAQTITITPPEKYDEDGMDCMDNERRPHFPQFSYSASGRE

For the molecule `O=[N+]([O-])c1ccc(-c2csc3nc(/N=C/c4ccc(Cl)cc4)nn23)cc1`, the inhibition result in data set [1], in [8], in [13], in data set [16], in [19] and in [20] was “Dose-Dependent Effect” throughout. The outcome in data set [2], in data set [3], in data set [5], in data set [7], in [9] and in [21] was Active. Moreover, the inhibition entry in [4] and in data set [14] was “Active” in each case. In addition, the Activity in data set [6] is 15.04 um/hr; in data set [11], 13.6 um/hr; in [12], 35%; in data set [17] it was 66.5%; in [18], 35%; in [22], 50%. In addition, the figures for the IC50 in [10] and in [15] were 12.6 µM and 8.74 µM, respectively.

On to `O=C1c2ccccc2C(=O)N1c1nc2scc(-c3ccc(Br)cc3)n2n1`, for which the Activity in data set [23] is reported as 31.9%; in data set [6], 14.36 um/hr; in data set [24] it was 54.9%; in [11], 8.96 um/hr; in data set [12], 47%; in [18], 47%. In addition, the inhibition result in data set [1], in data set [8], in [13], in [16], in data set [19] and in data set [20] was “Dose-Dependent Effect” throughout. The outcome in [2], in data set [3], in [5], in data set [7], in data set [9] and in data set [21] was Active. Also, the inhibition entry in data set [4] and in data set [14] was “Active” each time. Besides, the IC50 was 12.7 µM in data set [10] and 8.09 µM in data set [15].

Regarding `COc1ccc(-c2csc3nc(/N=C/c4ccc(Cl)cc4Cl)nn23)cc1`, the IC50 stood at 21.5 µM in data set [10] and 7.56 µM in [15]. In addition, in data set [25], the solubility entry is “Insoluble”.

Take `O=C1c2ccccc2C(=O)N1c1nc2scc(-c3ccc(-c4ccccc4)cc3)n2n1`: the IC50 is 8.97 µM in [10] and 5.79 µM in data set [15]. Moreover, the solubility entry in data set [25] is given as “Insoluble”.
